Each block holds one molecule with its values, some of them ahead of it.
Columns and labels:
[1] = test system: male c57BL/6 mice; test: Oral Glucose Tolerance Test (OGTT): glucose and active GLP-1; format: in vivo, mouse; details: for Active GLP-1 Fold Increase / Glucose % Lowering: vs vehicle
Description: Maintain mice under approved Animal Care and Use protocols for Lilly Research Laboratories and house on a 12 hour light cycle from 6 am to 6 pm. For the OGTT, fast the mice between 3 & 4 pm. The following day at 6 am, measure body weights and collect baseline blood samples via tail vein for glucose (Roche Aviva glucometer). […] No. […] No. DPP-4)/aprotinin (Fisher BioReagents, Cat. No. BP250310), store on wet ice, spin down (3500 rpm, 4° C.), draw off plasma, plate and freeze. […] No. […]-2). Calculate area under the curve (AUC) values.

[2] = molecular target: T1, hSSTR5 (Homo sapiens, UniProt P35346); test: β-Arrestin whole cell functional assay (PathHunter CHO-K1 hSSTR5 β-arrestin cells); format: cell-based; design: host or cells: CHO-K1 (PathHunter engineered line); details: EC80 agonist 37.5 nM SST14
T1 sequence (P35346 whole entry): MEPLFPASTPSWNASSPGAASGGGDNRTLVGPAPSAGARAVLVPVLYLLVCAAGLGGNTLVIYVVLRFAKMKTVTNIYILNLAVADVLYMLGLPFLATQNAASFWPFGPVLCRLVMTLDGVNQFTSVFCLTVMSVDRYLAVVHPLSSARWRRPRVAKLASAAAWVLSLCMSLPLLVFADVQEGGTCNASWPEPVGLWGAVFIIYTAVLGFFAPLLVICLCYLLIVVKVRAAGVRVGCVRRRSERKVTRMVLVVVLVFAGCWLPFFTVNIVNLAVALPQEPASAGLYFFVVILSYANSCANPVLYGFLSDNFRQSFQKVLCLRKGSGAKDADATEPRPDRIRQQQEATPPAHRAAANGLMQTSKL
Description: A β-arrestin whole cell, functional assay, utilizing U20S cells (human osteosarcoma cells), can directly measure effects of the compound of Example 2 on GPCR activity by determining its effects on the interaction of β-arrestin with the activated GPCR. Perform the CRC measurement of β-arrestin activity utilizing PathHunter CHO-K1 hSSTR5 β-arrestin cells from DiscoveRx (93-0402C2). Plate cells at a concentration of 5K/well in 50 μl of assay plating media in 384-well White Plates with opaque bottom (manufactured by Corning (3570)) and incubate overnight at 37° C./5% CO2. Prepare test solutions by diluting 3 μl of Example 2 with 27 μl of DMSO for a step down dilution. Mix the diluted plate of the current invention on a plate shaker for five minutes. Wash cells with 50 μl of PBS (manufactured by HyClone) three times using a plate washer. After washing, use a Wellmate to add 15 μl of assay buffer (assay buffer prepared from HBSS (manufactured by HyClone), 20 mM HEPES (manufactured by HyClone) with 0.1% BSA (manufactured by Gibco)) to the cells followed by 100 nl of the present invention serial dilution. Incubate the cells at 37° C./5% CO2 for 30 min.

[3] = molecular target: T1, hSSTR5; test: Somatostatin binding assay (SPA, 125I-Somatostatin 14), human SSTR5 membranes; design: purchased Perkin Elmer ES-522-M400UA; host or cells: CHO (the text speaks of CHO-SSTR5 receptors); details: human somatostatin 5 membranes, 0.25 nM [125I]-Somatostatin 14
Description: (§1) The antagonistic effect of the compound of Example 2 can be evaluated in human and mouse SSTR5 binding assays utilizing a scintillation proximity assay (SPA) format for a concentration response curve (CRC) (^125I-Somatostatin 14 binding to CHO-SSTR5 receptors). Perform measurement of SSTR5 binding utilizing either human somatostatin 5 membranes (manufactured by Perkin Elmer (ES-522-M400UA)) at a concentration of 0.4 μg/well or transiently expressed mouse SSTR5 membranes (generated in-house using Lipofectamine 2000 according to the manufacture's protocol (Life Technologies)) at a concentration of 8 μg/well. Homogenize membranes or dilute in buffer (prepare buffer from 25 mM HEPES (manufactured by HyClone), 5 mM MgCl2 (manufactured by Sigma), 1 mM CaCl2 (manufactured by Sigma), 0.5% BSA, pH 7.4 (manufactured by Gibco)).

[4] = test system: male c57BL/6 mice; test: GLP-1 secretion in vivo, 12 hour PK/PD study; design: species or system mouse; details: for Active GLP-1 AUC Fold Increase: vs vehicle
Description: Use male c57BL/6 mice from Harlan Laboratories at 8-9 weeks of age to evaluate the effects of the compound of Example 2 on GLP-1 Secretion in vivo during a 12 hour pharmacokinetic/pharmacodynamic (PK/PD) study. Maintain mice under approved Animal Care and Use protocols for Lilly Research Laboratories and house on a 12 hour light cycle from 6 am to 6 pm. The day prior to the evaluation, fast the mice at 6 pm. The following day at 6 am, measure body weight and administer vehicle (HEC 1%/Tween 80 0.25%/Antifoam 0.05%) or the compound of Example 2 alone in vehicle (HEC 1%/Tween 80 0.25%/Antifoam 0.05% suspension). Collect blood samples for measurement of active GLP-1 levels and plasma exposure (˜150 μl into EDTA coated Sarstedt Microvette® CB300 K2E tubes) at 0.25, 0.5, 1, 2, 4, 6, 9, 12 hours post-administration (only two samples collected from each mouse, euthanizing immediately following the second blood collection) Immediately after collecting the blood, preserve active GLP-1 samples with 5 μl of a mixture of DPP4 inhibitor (Bio Trend Cat. No. DPP-4)/aprotinin (Fisher BioReagents, Cat. No. BP250310), store on wet ice, spin down (3500 rpm, 4° C.). Draw off plasma, plate and freeze. Store GLP-1 samples at −80° C. until they can be analyzed utilizing a Meso Scale Discovery Active GLP-1 (v2) Kit (Cat. No. K150JWC-2). Calculate area under the curve (AUC) values.

[5] = molecular target: T2, mouse SSTR5 (Mus musculus, UniProt O08858); test: Somatostatin binding assay (SPA, 125I-Somatostatin 14), mouse SSTR5 membranes; details: transiently expressed mouse SSTR5 membranes, 0.25 nM [125I]-Somatostatin 14
T2 construct: expressed in transfected cells; host or cells: probably CHO ('CHO-SSTR5 receptors')
T2 sequence (O08858 1-362): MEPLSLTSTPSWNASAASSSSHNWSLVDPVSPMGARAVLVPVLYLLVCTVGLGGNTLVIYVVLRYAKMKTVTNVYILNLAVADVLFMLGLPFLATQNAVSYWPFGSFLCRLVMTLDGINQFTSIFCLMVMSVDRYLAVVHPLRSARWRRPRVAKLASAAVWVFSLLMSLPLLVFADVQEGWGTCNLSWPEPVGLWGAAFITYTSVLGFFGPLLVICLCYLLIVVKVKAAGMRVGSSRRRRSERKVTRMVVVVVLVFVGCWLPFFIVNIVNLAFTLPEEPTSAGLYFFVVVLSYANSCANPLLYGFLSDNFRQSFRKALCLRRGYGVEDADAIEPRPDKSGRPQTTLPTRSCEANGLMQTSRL
Description: as §1

[6] = Example 1 0.3 mg/kg orally 90 min before glucose bolus
[7] = Example 1 30 mg/kg orally 90 min before glucose bolus
[8] = Sitagliptin 10 mg/kg orally 90 min before glucose bolus

Structure (SMILES): CCOc1cc(CN2CCC3(CC2)CN(c2ccc(C(=O)O)cc2)C(=O)N3)c(C2CC2)cc1C.Cl [Example 1, 4-[8-[(2-Cyclopropyl-5-ethoxy-4-methyl-phenyl)methyl]-2-oxo-1,3,8-triazaspiro[4.5]decan-3-yl]benzoic acid hydrochloride]
Active GLP-1 AUC (0-60 min) [1, 6]: 93.2 ± 15.5 pg/mL-min
Glucose AUC (0-60 min) [1, 6]: 7441 ± 612 mg·min/dL
Active GLP-1 Fold Increase ([1]; Example 1 0.3 mg/kg orally): 1.8
Glucose % Lowering ([1]; Example 1 0.3 mg/kg orally): 23%
Active GLP-1 AUC (0-60 min) [1, 7]: 151 ± 14.0 pg/mL-min
Glucose AUC (0-60 min) [1, 7]: 5674 ± 360 mg·min/dL
Active GLP-1 Fold Increase ([1]; Example 1 30 mg/kg orally): 2.9
Glucose % Lowering ([1]; Example 1 30 mg/kg orally): 41%
effect on GLP-1 in OGTT (in words) ([1]; OGTT in mice): increased GLP-1 activity
effect on glucose in OGTT (in words) ([1]; OGTT in mice): glucose lowering effect

IC50 [2]: 0.81 nM
Ki [3]: 0.54 nM
Ki [5]: 4.87 nM
Structure (SMILES): CCOc1cc(CN2CCC3(CC2)CN(c2ccc(C(=O)O)cc2)C(=O)N3)c(C2CC2)cc1C [Example 2, 4-[8-[(2-Cyclopropyl-5-ethoxy-4-methyl-phenyl)methyl]-2-oxo-1,3,8-triazaspiro[4.5]decan-3-yl]benzoic acid hydrate]
Active GLP-1 AUC (0-12 hours) ([4]; 0.3 mg/kg, fasted mice): 60.2 ± 2.9 pg/mL-hour
Active GLP-1 AUC Fold Increase ([4]; 0.3 mg/kg): 1.9
Active GLP-1 AUC (0-12 hours) ([4]; 1 mg/kg, fasted mice): 71.2 ± 3.3 pg/mL-hour
Active GLP-1 AUC Fold Increase ([4]; 1 mg/kg): 2.2
Active GLP-1 AUC (0-12 hours) ([4]; 3 mg/kg, fasted mice): 72.5 ± 4.3 pg/mL-hour
Active GLP-1 AUC Fold Increase ([4]; 3 mg/kg): 2.3
Active GLP-1 AUC (0-12 hours) ([4]; 10 mg/kg, fasted mice): 87.3 ± 3.8 pg/mL-hour
Active GLP-1 AUC Fold Increase ([4]; 10 mg/kg): 2.7
Active GLP-1 AUC (0-12 hours) ([4]; 30 mg/kg, fasted mice): 86.3 ± 4.6 pg/mL-hour
Active GLP-1 AUC Fold Increase ([4]; 30 mg/kg): 2.7
effect on active GLP-1 (in words) ([4]; fasted mice, no glucose load): non-glucose dependent effect to increase active GLP-1

Structure (SMILES): N[C@@H](CC(=O)N1CCn2c(nnc2C(F)(F)F)C1)Cc1cc(F)c(F)cc1F [Sitagliptin, sitagliptin, reference compound]
Active GLP-1 AUC (0-60 min) [1, 8]: 343 ± 73 pg/mL-min
Glucose AUC (0-60 min) [1, 8]: 5308 ± 237 mg·min/dL
Active GLP-1 Fold Increase ([1]; Sitagliptin 10 mg/kg orally): 6.6
Glucose % Lowering ([1]; Sitagliptin 10 mg/kg orally): 45%

Source: US9920056B2, “2-oxo-1,3,8-triazaspiro[4.5]decan-3-yl] carboxylic acid derivatives” (Eli Lilly and Company, priority 2015, dated 2018)
